Results reported in publication PMC12197678, “Cvill6 and Cvill7: Potent and Selective Peptide Blockers of Kv1.2 Ion Channel Isolated from Mexican Scorpion Centruroides villegasi” (Toxins, 2025).
Positions of bridges follow the written chain, without caps; N, C: chain ends. Residues, ends and D or L forms follow the SMILES beside them.

Columns and labels:
hKv11.1 (hERG1) = experiment: Whole-cell patch-clamp, hKv11.1 current in stable HEK293 cells; assay type: cell-based, human; details: 100 nM; ~3 min
Experimental: Appropriate voltage protocols were applied to record the K^+ currents from voltage-clamped cells in whole-cell configurations. Toxins were freshly dissolved in the bath solution supplemented with 0.1 mg/mL BSA and applied to the patched cells via a gravity-fed micro-perfusion system with an approximate flow rate of 200 µL/min.
HEK 293 cells stably expressing mKCa1.1 1 (BKCa, Kcnma1 gene, generously provided by C. Beeton from Baylor College of Medicine, Houston, TX, USA) or hKv11.1 (hERG1, KCNH2 gene, gifted by H. Wulff from University of California, Davis, CA, USA) were utilized in this study.
Whole-cell currents were recorded using the patch-clamp technique in voltage-clamp mode, following standard protocols [73]. […] Micropipettes were made from GC150F-7.5 borosilicate capillaries (Harvard Apparatus Co., Holliston, MA, USA) using a Sutter P2000 laser puller with tip resistance generally ranging from 3–6 MΩ in the bath solution. Only recordings with a leak current at the holding potential (Vh) of <10% of the peak current at the test potential were included in the data analysis. All recordings were performed at room temperature (20–25 °C). […]

hKCa3.1 (IKCa1, SK4) = molecular target: T1, hKCa3.1 (IKCa1, SK4) (Homo sapiens, UniProt O15554); experiment: Whole-cell patch-clamp, hKCa3.1 current in transfected CHO cells; assay type: cell-based; details: for reversibility of KCa3.1 inhibition / time to steady-state block of KCa3.1 / reduction of KCa3.1 current / inhibition at 0.1 µM / remaining current fraction (RCF, I/I0): 100 nM; for reversibility of KCa3.1 inhibition: then toxin-free solution; for time to steady-state block of KCa3.1: 5–6 consecutive traces; for time to steady-state block of KCa3.1 / remaining current fraction (RCF, I/I0) / time to recovery from KCa3.1 block: n = 5; for reduction of KCa3.1 current: representative record; for inhibition at 0.1 µM / potency estimated from few doses: CHO; for inhibition at 0.1 µM: read-out: inhibition of KCa3.1 current; for potency estimated from few doses / remaining current fraction (RCF, I/I0): KCa3.1; for potency estimated from few doses: estimated from a single concentration (100 nM), bimolecular 1:1 interaction, read-out: estimated IC50; for remaining current fraction (RCF, I/I0): mean ± SEM; for time to recovery from KCa3.1 block: toxin-lacking solution after 100 nM
T1 construct: expressed in transfected cells; host or cells: CHO cells, transient transfection (Lipofectamine 2000); plasmid a gift of H. Wulff
T1 sequence (O15554 whole entry): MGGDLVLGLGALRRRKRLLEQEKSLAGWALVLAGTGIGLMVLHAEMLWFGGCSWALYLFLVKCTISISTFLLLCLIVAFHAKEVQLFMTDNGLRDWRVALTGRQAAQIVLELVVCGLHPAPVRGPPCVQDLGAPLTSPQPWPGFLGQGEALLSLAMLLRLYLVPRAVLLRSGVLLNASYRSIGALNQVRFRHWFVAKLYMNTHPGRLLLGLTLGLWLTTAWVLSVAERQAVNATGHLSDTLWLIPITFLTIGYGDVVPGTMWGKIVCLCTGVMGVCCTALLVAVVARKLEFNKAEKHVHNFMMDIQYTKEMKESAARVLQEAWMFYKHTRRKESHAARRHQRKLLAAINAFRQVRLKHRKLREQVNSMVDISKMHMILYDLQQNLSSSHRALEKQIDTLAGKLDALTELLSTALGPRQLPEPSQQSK
From the text: The scorpion toxins from the α-KTx 2 family also modulate the function of Ca^2+-activated potassium channels, in addition to Kv1 channels. Therefore, we investigated the activity of Cvill6 and Cvill7 toxins on three different types of Ca^2+-activated K^+ channels: (1) hKCa2.2 (SK2), the small-conductance Ca^2+-activated channel; (2) hKCa3.1 (IKCa1, SK4), the intermediate-conductance Ca^2+-activated channels, mainly expressed in T lymphocytes; and (3) mKCa1.1 (BK or MaxiK), the large-conductance voltage- and Ca^2+- activated channel of mice. Appropriate depolarization protocols were applied to record the K^+ current through respective KCa channels as shown in the inset of each panel in Figure 6A–C. […] Cvill6 reduced ~40% of the KCa3.1 current (Figure 6C), where the RCF value was 0.73 ± 0.05 (n = 5) at 100 nM (Figure 6D). On the other hand, Cvill7 inhibited ~25% of the current at the same concentration (Figure 6C), with an RCF value 0.84 ± 0.03 (n = 5) (Figure 6D). The time course of inhibition of KCa3.1 currents at 100 nM of Cvill6 or Cvill7 is shown in Figure 6E and Figure 6F, respectively. The normalized peak currents (see Section 2.4 or Section 5 for details) for individual cells (n = 5) were averaged at each time point and plotted as a function of time. […] The recovery from the block with Cvill6 to the initial peak current occurred in 4–5 consecutive traces (~0.8 min) and in the case of Cvill7 it took only 2–3 consecutive traces (~0.5 min) after perfusing the cell with toxin-lacking solution. […] The quantity of native toxins was insufficient to conduct the full dose–response curves at this high concentration range (see above).
Chinese hamster ovary (CHO) cells (generously provided by Yosef Yarden, Weizmann Institute of Science, Rehovot, Israel) or human embryonic kidney (HEK293) cells were cultured and maintained in Dulbecco’s modified Eagle medium (DMEM, Thermo Fisher Scientific, Waltham, MA, USA) supplemented with 2 mM L-glutamine, 10% fetal bovine serum (FBS), 100 µg/mL streptomycin, and 100 U/mL penicillin-g (Sigma-Aldrich, Budapest, Hungary) following standard culturing conditions. For transient expression of ion channels, CHO cells were transfected using the Lipofectamine 2000 kit (Invitrogen, Waltham, MA, USA) following the manufacturer’s instructions with plasmids encoding specific ion channels, including hKv1.1 (KCNA1 gene), hKv1.2 (KCNA2 gene), and hKv1.5 (KCNA5 gene) in a pCMV6-AC-GFP vector (OriGene Technologies), hKCa2.2 (KCNN2 gene) in a pCDN3 plasmid (for this transfection a GFP containing plasmid was co-transfected, courtesy of Bernard Attali, Tel Aviv University, Tel Aviv, Israel), and hKCa3.1 (KCNN4 gene) in a pEGFP-C1 vector (a kind gift by H. Wulff, University of California, Davis, CA, USA). Cells expressing GFP were identified using a Nikon TE 2000U fluorescence microscope (Nikon, Tokyo, Japan) with bandpass filters set to 455–495 nm for excitation and 515–555 nm for emission. Electrophysiological recordings were typically conducted 24 to 48 h after transfection.
The extracellular solution (bath solution) for both Kv and KCa channels consisted of 145 mM NaCl, 5 mM KCl, 2.5 mM CaCl2, 1 mM MgCl2, 10 mM HEPES, and 5.5 mM glucose, pH 7.35, and osmolarity between 302 and 308 mOsM/L. For positive control solutions containing various concentrations of tetraethylammoniums (TEA^+), Na^+ was substituted with TEA-Cl in equimolar concentration in the bath solution and all other ingredients remained unchanged. To avoid toxin adsorption onto the plastic surfaces of the perfusion system, 0.1 mg/mL of bovine serum albumin (BSA, Sigma-Aldrich, Budapest, Hungary) was also added into all bath solutions prior to the patch-clamp assay. […]

hKv1.1 = molecular target: T2, hKv1.1 (Homo sapiens, UniProt Q09470); experiment: cell-based; assay type: cell-based
T2 construct: host or cells: CHO cells, transient transfection (Lipofectamine 2000)
T2 sequence (Q09470 whole entry): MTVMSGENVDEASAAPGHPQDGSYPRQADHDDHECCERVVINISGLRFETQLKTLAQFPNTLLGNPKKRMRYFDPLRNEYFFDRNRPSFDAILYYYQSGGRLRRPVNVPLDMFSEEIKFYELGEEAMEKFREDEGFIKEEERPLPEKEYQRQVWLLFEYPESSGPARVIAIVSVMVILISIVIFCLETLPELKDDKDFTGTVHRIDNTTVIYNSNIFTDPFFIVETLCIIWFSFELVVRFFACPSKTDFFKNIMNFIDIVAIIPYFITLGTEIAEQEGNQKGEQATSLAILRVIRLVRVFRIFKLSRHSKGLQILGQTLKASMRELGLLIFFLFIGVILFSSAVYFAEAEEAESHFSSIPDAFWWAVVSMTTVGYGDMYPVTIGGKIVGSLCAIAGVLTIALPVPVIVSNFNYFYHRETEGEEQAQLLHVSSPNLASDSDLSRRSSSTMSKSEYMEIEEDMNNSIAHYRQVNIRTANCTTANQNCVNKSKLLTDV
From the text: For current recordings, Kv1.1, Kv1.2, and Kv1.5 were transiently expressed in CHO cells while for Kv11.1 a stable HEK293 cell line was used. To record Kv1.3 currents human peripheral T lymphocytes were activated with Phytohemagglutinin A (PHA) to boost Kv1.3 expression and Ca^2+-free intracellular solution to prevent the KCa3.1 channel opening. […] Appropriate voltage protocols were applied to record the K^+ currents from voltage-clamped cells in whole-cell configurations. Toxins were freshly dissolved in the bath solution supplemented with 0.1 mg/mL BSA and applied to the patched cells via a gravity-fed micro-perfusion system with an approximate flow rate of 200 µL/min.
Chinese hamster ovary (CHO) cells (generously provided by Yosef Yarden, Weizmann Institute of Science, Rehovot, Israel) or human embryonic kidney (HEK293) cells were cultured and maintained in Dulbecco’s modified Eagle medium (DMEM, Thermo Fisher Scientific, Waltham, MA, USA) supplemented with 2 mM L-glutamine, 10% fetal bovine serum (FBS), 100 µg/mL streptomycin, and 100 U/mL penicillin-g (Sigma-Aldrich, Budapest, Hungary) following standard culturing conditions [52]. For transient expression of ion channels, CHO cells were transfected using the Lipofectamine 2000 kit (Invitrogen, Waltham, MA, USA) following the manufacturer’s instructions with plasmids encoding specific ion channels, including hKv1.1 (KCNA1 gene), hKv1.2 (KCNA2 gene), and hKv1.5 (KCNA5 gene) in a pCMV6-AC-GFP vector (OriGene Technologies), hKCa2.2 (KCNN2 gene) in a pCDN3 plasmid (for this transfection a GFP containing plasmid was co-transfected, courtesy of Bernard Attali, Tel Aviv University, Tel Aviv, Israel), and hKCa3.1 (KCNN4 gene) in a pEGFP-C1 vector (a kind gift by H. Wulff, University of California, Davis, CA, USA). […] Electrophysiological recordings were typically conducted 24 to 48 h after transfection.
Whole-cell currents were recorded using the patch-clamp technique in voltage-clamp mode, following standard protocols [73]. […] Micropipettes were made from GC150F-7.5 borosilicate capillaries (Harvard Apparatus Co., Holliston, MA, USA) using a Sutter P2000 laser puller with tip resistance generally ranging from 3–6 MΩ in the bath solution. Only recordings with a leak current at the holding potential (Vh) of <10% of the peak current at the test potential were included in the data analysis. All recordings were performed at room temperature (20–25 °C). Control and test solutions were perfused to the cells via a gravity-driven micro-perfusion system and AutoMate Perfusion Pencil Multi-Barrel Manifold Tip (AutoMate Scientific, Berkeley, CA, USA), with an approximate flow rate of 200 µL/min, and the excess amount of bath solution was continuously removed from the recording chamber using vacuum suction.
The duration of depolarization pulses was 15 ms for Kv1.3 and 50 ms for Kv1.1 and Kv1.5. However, for Kv1.2, 15–500 ms-long pulses were used to achieve the saturated peak current due to the variable activation kinetics of this channel [74].

hKCa2.2 (SK2) = experiment: Whole-cell patch-clamp, hKCa2.2 current in transfected CHO cells; assay type: cell-based, human; details: 100 nM; ~3 min
From the text: The scorpion toxins from the α-KTx 2 family also modulate the function of Ca^2+-activated potassium channels, in addition to Kv1 channels. Therefore, we investigated the activity of Cvill6 and Cvill7 toxins on three different types of Ca^2+-activated K^+ channels: (1) hKCa2.2 (SK2), the small-conductance Ca^2+-activated channel; (2) hKCa3.1 (IKCa1, SK4), the intermediate-conductance Ca^2+-activated channels, mainly expressed in T lymphocytes; and (3) mKCa1.1 (BK or MaxiK), the large-conductance voltage- and Ca^2+- activated channel of mice. […] The quantity of native toxins was insufficient to conduct the full dose–response curves at this high concentration range (see above).
Chinese hamster ovary (CHO) cells (generously provided by Yosef Yarden, Weizmann Institute of Science, Rehovot, Israel) or human embryonic kidney (HEK293) cells were cultured and maintained in Dulbecco’s modified Eagle medium (DMEM, Thermo Fisher Scientific, Waltham, MA, USA) supplemented with 2 mM L-glutamine, 10% fetal bovine serum (FBS), 100 µg/mL streptomycin, and 100 U/mL penicillin-g (Sigma-Aldrich, Budapest, Hungary) following standard culturing conditions. […] Cells expressing GFP were identified using a Nikon TE 2000U fluorescence microscope (Nikon, Tokyo, Japan) with bandpass filters set to 455–495 nm for excitation and 515–555 nm for emission. […]

| SMILES | effect on hKv11.1 (hERG1) current (hKv11.1 (hERG1)) | reversibility of KCa3.1 inhibition (hKCa3.1 (IKCa1, SK4)) | time to steady-state block of KCa3.1 (hKCa3.1 (IKCa1, SK4)) | reduction of KCa3.1 current (hKCa3.1 (IKCa1, SK4)) | inhibition at 0.1 µM (hKCa3.1 (IKCa1, SK4)) | potency estimated from few doses (hKCa3.1 (IKCa1, SK4)) | remaining current fraction (RCF, I/I0) (hKCa3.1 (IKCa1, SK4)) | affinity for KCa3.1 relative to Cvill7 (hKCa3.1 (IKCa1, SK4); estimated IC50 comparison) | time to recovery from KCa3.1 block (hKCa3.1 (IKCa1, SK4)) | effect on hKv1.1 current (hKv1.1; 100 nM) | effect on KCa2.2 current (hKCa2.2 (SK2)) | reduction of hKv1.1 peak current (hKv1.1; 100 nM, representative record, equilibrium block) | potency estimated from few doses (hKv1.1; CHO, read-out: estimated IC50) | inhibition at 0.1 µM (hKv1.1; CHO, read-out: inhibition of Kv1.1 current) |
| --- | --- | --- | --- | --- | --- | --- | --- | --- | --- | --- | --- | --- | --- | --- |
| CC[C@H](C)[C@H](N)C(=O)N[C@@H](Cc1ccccc1)C(=O)N[C@H](C(=O)N[C@@H](CC(N)=O)C(=O)N[C@H](C(=O)N[C@@H](CCCCN)C(=O)N[C@H]1CSSC[C@@H]2NC(=O)[C@H](CCCCN)NC(=O)CNC(=O)CNC(=O)[C@H](C)NC(=O)[C@H](Cc3c[nH]cn3)NC(=O)[C@H](CCC(N)=O)NC(=O)CNC(=O)[C@H](Cc3ccccc3)NC(=O)[C@H](CCCNC(=N)N)NC(=O)[C@H](CC(=O)O)NC(=O)[C@H](CCCCN)NC(=O)[C@@H]3CSSC[C@@H](C(=O)N[C@@H](Cc4ccc(O)cc4)C(=O)N4CCC[C@H]4C(=O)O)NC(=O)[C@H](CCCCN)NC(=O)[C@H](CSSC[C@H](NC(=O)[C@H](CCC(N)=O)NC(=O)[C@H](CCC(N)=O)NC(=O)[C@@H]4CCCN4C(=O)[C@H](CC(C)C)NC(=O)[C@H](CC(=O)O)NC1=O)C(=O)N[C@@H](CC(C)C)C(=O)N[C@@H](CCCNC(=N)N)C(=O)N1CCC[C@H]1C(=O)N3)NC(=O)[C@H](CCCCN)NC(=O)CNC(=O)[C@H](CC(N)=O)NC(=O)[C@H]([C@@H](C)CC)NC2=O)C(C)C)[C@@H](C)CC [Cvill6] (H-IFINVKCDLPQQCLRPCKDRFGQHAGGKCINGKCKCYP-OH; disulfide 7-29, 13-34, 17-36 (inferred); N-terminus and C-terminus assumed) | no change in current amplitudes | inhibit the KCa3.1 channel reversibly with quick association and dissociation kinetics | ~ 1 min | ~ 40% | ~27% | ~268 nM | 0.73 ± 0.05 | two-fold higher affinity | ~ 0.8 min | no change in current amplitudes | Neither Cvill6 nor Cvill7 showed any effect |  |  |  |
| CC[C@H](C)[C@H](NC(=O)[C@H](Cc1ccccc1)NC(=O)[C@@H](N)[C@@H](C)O)C(=O)N[C@@H](CC(N)=O)C(=O)N[C@H](C(=O)N[C@@H](CCCCN)C(=O)N[C@H]1CSSC[C@@H]2NC(=O)[C@H](CCCCN)NC(=O)CNC(=O)CNC(=O)[C@H](C)NC(=O)[C@H](Cc3c[nH]cn3)NC(=O)[C@@H]3CCCN3C(=O)CNC(=O)[C@H](Cc3ccc(O)cc3)NC(=O)[C@H](CC(C)C)NC(=O)[C@H](CC(=O)O)NC(=O)[C@H](CCCCN)NC(=O)[C@@H]3CSSC[C@@H](C(=O)N[C@@H](Cc4ccc(O)cc4)C(=O)N[C@@H](CC(N)=O)C(=O)N[C@@H](CC(N)=O)C(N)=O)NC(=O)[C@H](CCCCN)NC(=O)[C@H](CSSC[C@H](NC(=O)[C@H](CCC(N)=O)NC(=O)[C@H](CCCCN)NC(=O)[C@@H]4CCCN4C(=O)[C@H](CO)NC(=O)[C@H]([C@@H](C)O)NC1=O)C(=O)N[C@@H](CC(C)C)C(=O)N[C@@H](CCCCN)C(=O)N1CCC[C@H]1C(=O)N3)NC(=O)[C@H](CCCCN)NC(=O)CNC(=O)[C@H](CC(N)=O)NC(=O)[C@H](CCSC)NC2=O)C(C)C [Cvill7] (H-TFINVKCTSPKQCLKPCKDLYGPHAGGKCMNGKCKCYNN-NH2; disulfide 7-29, 13-34, 17-36; N-terminus and C-terminus assumed) | did not show any effect | inhibit the KCa3.1 channel reversibly with quick association and dissociation kinetics | ~ 1 min | ~ 25% | ~16% | ~527 nM | 0.84 ± 0.03 |  | ~ 0.5 min |  | Neither Cvill6 nor Cvill7 showed any effect | ~ 32% | ~192 nM | ~34% |
